# Experimental data from patent publication US8063234B2, “Substituted 7-sulfanylmethyl-, 7-sulfinylmethyl- and 7-sulfonylmethylindoles and the use thereof” (Bayer Schering Pharma Aktiengesellschaft, priority 2008, dated 2011).
# Biological target: T1, CYP3A4 (Homo sapiens, UniProt P08684)
# T1 construct: human liver microsomes (pool from various individuals); from tissue; host or cells: human liver microsomes (pool from various individuals)
# Test: Assay to assess irreversible CYP3A4 inhibition (mechanism-based inhibition) in human liver microsomes
# Format: in vitro ADME
# Conditions: 2-20 μM, preincubation 0-50 min, 6β-hydroxytestosterone formation
# Source text: 8. Assay to Assess Irreversible CYP3A4 Inhibition
# Cytochrom P450 enzyme inhibition, especially irreversible enzyme inhibition, also referred to as mechanism-based inhibition (MBI), is an unwanted metabolic property of a substance which may, on concurrent administration of other medicaments, lead to considerable drug interactions. Criteria for the presence of an irreversible inhibition are a time-, concentration- and cofactor- (nicotinamide adenine dinucleotide phosphate, NADPH) dependent inhibition. To this end, the compounds of the invention are incubated in vitro with human liver microsomes, the influence on the CYP3A4 activity and the metabolic degradation of the novel active ingredient is determined, and the prototypical parameters kinact, Ki and the partition ratio r are ascertained therefrom.
# The compounds of the invention are incubated with concentrations of 2-20 μM. To this end, stock solutions of the active ingredients with a concentration of 0.2-2 mM are prepared in acetonitrile and then pipetted with a 1:100 dilution into the incubation mixture. The liver microsomes are incubated in 50 mM potassium phosphate buffer (pH 7.4) with and without NADPH-generating system consisting of 1 mM NADP^+, 5 mM glucose 6-phosphate and 1 unit of glucose 6-phosphate dehydrogenase, at 37° C. After defined preincubation times of 0-50 min, aliquots are removed from these mixtures, diluted 1:25 in a new incubation, and incubated in the presence of testosterone and new NADPH-generating system again for 20 min. These incubation mixtures are stopped with acetonitrile (final concentration about 30% v/v), and the protein is removed by centrifugation at about 15 000×g. The samples stopped in this way are either analyzed directly or stored at −20° C. until analyzed.
# The analysis takes place by high performance liquid chromatography with mass spectrometry detection (LC-MS). The formation of 6β-hydroxytestosterone as measure of CYP3A4 activity, and the test substance still remaining is quantified. The parameters kinact, Ki and the partition ratio r are determined therefrom so as to assess the novel active ingredients in relation to MBI.
# T1 sequence (P08684 whole entry): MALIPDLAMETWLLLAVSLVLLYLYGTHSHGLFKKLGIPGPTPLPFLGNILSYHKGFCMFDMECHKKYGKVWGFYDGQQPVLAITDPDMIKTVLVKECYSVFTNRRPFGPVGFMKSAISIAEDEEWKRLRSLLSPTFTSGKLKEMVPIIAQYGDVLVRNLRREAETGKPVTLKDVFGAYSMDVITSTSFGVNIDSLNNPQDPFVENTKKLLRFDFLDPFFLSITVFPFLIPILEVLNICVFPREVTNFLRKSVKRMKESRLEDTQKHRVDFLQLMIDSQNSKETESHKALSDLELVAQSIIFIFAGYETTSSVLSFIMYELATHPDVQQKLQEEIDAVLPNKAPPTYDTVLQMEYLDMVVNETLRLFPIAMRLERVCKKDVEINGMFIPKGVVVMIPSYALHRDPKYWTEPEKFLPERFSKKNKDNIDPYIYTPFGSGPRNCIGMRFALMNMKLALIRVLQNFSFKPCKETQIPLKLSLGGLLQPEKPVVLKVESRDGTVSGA
row,SMILES,Partition ratio r
1,"CS(=O)(=O)Cc1cccc2c(C(CCC#N)c3ccc(C(F)(F)F)cc3)c[nH]c12 (single isomer, unassigned) [Example 56-1, 4-{7-[(Methylsulfonyl)methyl]-1H-indol-3-yl}-4-[4-(trifluoromethyl)phenyl]butanonitrile]",100
2,"CS(=O)(=O)Cc1cccc2c(C(CCC#N)c3ccc(Cl)cc3F)c[nH]c12 (single isomer, unassigned) [Example 59-1, 4-(4-Chloro-2-fluorophenyl)-4-{7-[(methylsulfonyl)methyl]-1H-indol-3-yl}butanonitrile]",220
3,"CS(=O)(=O)Cc1cccc2c(C(c3ccc(F)cc3)c3ccc(Cl)cc3F)c[nH]c12 (single isomer, unassigned) [Example 118-1, 3-[(4-Chloro-2-fluorophenyl)(4-fluorophenyl)methyl]-7-[(methylsulfonyl)methyl]-1H-indole]",250
4,"CS(=O)(=O)Cc1cccc2c(C(c3ccc(Cl)cc3)C3CC3(F)F)c[nH]c12 (single isomer, unassigned) [Example 261-1, 3-[(4-Chlorophenyl)(2,2-difluorocyclopropyl)methyl]-7-[(methylsulfonyl)methyl]-1H-indole]",>200
5,"CS(=O)(=O)Cc1cc(F)cc2c(C(c3ccc(F)cc3Cl)C3CC3C#N)c[nH]c12 (single isomer, unassigned) [Example 266-1, 2-[(2-Chloro-4-fluorophenyl){5-fluoro-7-[(methylsulfonyl)methyl]-1H-indol-3-yl}methyl]cyclopropanecarbonitrile]",>200
6,"CS(=O)(=O)Cc1cc(F)cc2c(C(c3ccc(C(F)(F)F)cc3F)C3CC3C#N)c[nH]c12 (single isomer, unassigned) [Example 271-1-1, 2-({5-Fluoro-7-[(methylsulfonyl)methyl]-1H-indol-3-yl}[2-fluoro-4-(trifluoro-methyl)phenyl]methyl)cyclopropanecarbonitrile]",>200
7,"CS(=O)(=O)Cc1cc(F)cc2c(C(c3ccc(Cl)cc3F)C3CC3C#N)c[nH]c12 (single isomer, unassigned) [Example 273-1-2, 2-[(4-Chloro-2-fluorophenyl){5-fluoro-7-[(methylsulfonyl)methyl]-1H-indol-3-yl}methyl]cyclopropanecarbonitrile]",>200
8,"CS(=O)(=O)Cc1cc(F)cc2c(C(c3ccc(Cl)cc3)C3CC3C#N)c[nH]c12 (single isomer, unassigned) [Example 277-1-1, 2-[(4-Chlorophenyl){5-fluoro-7-[(methylsulfonyl)methyl]-1H-indol-3-yl}methyl]cyclopropane-carbonitrile]",>200
9,"CS(=O)(=O)Cc1cccc2c(C(CCC#N)c3ccc4sccc4c3)c[nH]c12 (centres unmarked) [Example 73, 4-(1-Benzothiophen-5-yl)-4-{7-[(methylsulfonyl)methyl]-1H-indol-3-yl}butanonitrile]",>500
10,"CS(=O)(=O)Cc1cccc2c(C3(C4CC4)CCc4cc(F)ccc43)c[nH]c12 (centres unmarked) [Example 107, 3-(1-Cyclopropyl-5-fluoro-2,3-dihydro-1H-inden-1-yl)-7-[(methylsulfonyl)methyl]-1H-indole]",>400
11,"CS(=O)(=O)Cc1cccc2c(C(c3ccc(F)cc3)c3ccc(C(F)(F)F)cc3)c[nH]c12 (centres unmarked) [Example 113, 3-{(4-Fluorophenyl) [4-(trifluoromethyl)phenyl]methyl}-7-[(methylsulfonyl)methyl]-1H-indole]",>500
12,"CCC(CCO)(c1ccc(Cl)cc1)c1c[nH]c2c(CS(C)(=O)=O)cccc12 (centres unmarked) [Example 147, 3-(4-Chlorophenyl)-3-{7-[(methylsulfonyl)methyl]-1H-indol-3-yl}pentan-1-ol]",90
13,"CS(=O)(=O)Cc1cccc2c(C(CCC#N)c3ccc4c(c3)OC(F)(F)O4)c[nH]c12 (centres unmarked) [Example 169, 4-(2,2-Difluoro-1,3-benzodioxol-5-yl)-4-{7-[(methylsulfonyl)methyl]-1H-indol-3-yl}butanonitrile]",>500
14,"CCC(CCC#N)(c1ccc(Cl)cc1)c1c[nH]c2c(CS(C)(=O)=O)cccc12 (centres unmarked) [Example 172, 4-(4-Chlorophenyl)-4-{7-[(methylsulfonyl)methyl]-1H-indol-3-yl}hexanonitrile]",120
